Laboratory results: PubChem BioAssay (NCI)
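Protocol summary: plate cells (96-well), add compound at 5 concentrations, incubate 48 h, interpolate endpoints linearly. The concentration for 50% growth inhibition is given as GI50. TGI: total growth inhibition.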 Active and inactive are the calls of the source. Cut-off read from the data, not from the text of the source: active = GI50 below about 0.43 µM; inactive = the rest.

Assays:
Experiment in all cases: NCI anticancer screen, dose series, 48 h
[1] = system: NCI-H23 lung
[2] = system: UACC-62 melanoma
[3] = system: MCF7 breast
[4] = system: MOLT-4 leukemia
[5] = system: NCI-H522 lung
[6] = system: HOP-62 NSCLC
[7] = system: HT29 colon
[8] = system: SK-MEL-2 melanoma
[9] = system: IGROV1 ovarian
[10] = system: SN12C renal
[11] = system: UO-31 renal
[12] = system: A549 NSCLC
[13] = system: NCI/ADR-RES ovarian
[14] = system: MDA-MB-231 breast
[15] = system: M14 melanoma
[16] = system: LOX IMVI melanoma
[17] = system: OVCAR-8 ovarian
[18] = system: SK-OV-3 ovarian
[19] = system: SW-620 colon
[20] = system: BT-549 breast
[21] = system: SR leukemia
[22] = system: EKVX NSCLC
[23] = system: HCC-2998 colon
[24] = system: NCI-H226 lung
[25] = system: SNB-19 CNS
[26] = system: UACC-257 melanoma
[27] = system: OVCAR-4 ovarian
[28] = system: RPMI-8226 leukemia
[29] = system: SK-MEL-28 melanoma
[30] = system: OVCAR-5 ovarian
[31] = system: NCI-H460 lung
[32] = system: SNB-75 CNS
[33] = system: SF-539 CNS
[34] = system: SF-268 CNS
[35] = system: K-562 leukemia
[36] = system: U251 CNS
[37] = system: CCRF-CEM leukemia
[38] = system: ACHN renal
[39] = system: TK-10 renal
[40] = system: SK-MEL-5 melanoma
[41] = system: KM12 colon
[42] = system: HCT-15 colon
[43] = system: MALME-3M melanoma
[44] = system: 786-0 renal
[45] = system: RXF 393 renal
[46] = system: PC-3 prostate
[47] = system: HS 578T breast
[48] = system: COLO 205 colon
[49] = system: A498 renal
[50] = system: DU-145 prostate
[51] = system: HCT-116 colon
[52] = system: HL-60(TB) leukemia
[53] = system: T-47D breast
[54] = system: HOP-92 NSCLC
[55] = system: MDA-MB-435
[56] = system: SF-295 CNS
[57] = system: CAKI-1 renal

CC(=O)c1c(CN(C)c2ccccc2)n([O-])c2ccccc2[n+]1=O
> 100 µM: TGI [4] | TGI [6] | TGI [8] | TGI [9] | TGI [11] | TGI [12] | TGI [14] | TGI [16] | TGI [17] | TGI [19] | TGI [21] | TGI [22] | TGI [23] | TGI [26] | TGI [27] | TGI [29] | TGI [30] | TGI [31] | TGI [32] | TGI [35] | TGI [36] | TGI [38] | TGI [39] | TGI [41] | TGI [42] | TGI [44] | TGI [47] | TGI [49] | TGI [50] | TGI [51]
67.5 µM: TGI [24]
42.4 µM: TGI [40]
96.7 µM: TGI [37]
44.3 µM: TGI [46]
70 µM: TGI [18]
inactive: GI50 [1] 16.4 µM | GI50 [2] 23.9 µM | GI50 [3] 15 µM | GI50 [4] 23.9 µM | GI50 [5] 25.6 µM | GI50 [6] 30.7 µM | GI50 [7] 20.4 µM | GI50 [8] > 100 µM | GI50 [9] 45.4 µM | GI50 [10] 24.9 µM | GI50 [11] 32 µM | GI50 [12] 47.1 µM | GI50 [13] 19.5 µM | GI50 [14] 27.1 µM | GI50 [15] 31.4 µM | GI50 [16] 38.2 µM | GI50 [17] 43.1 µM | GI50 [18] 31.8 µM | GI50 [19] 21 µM | GI50 [20] 25.1 µM | GI50 [21] 5.79 µM | GI50 [22] 41.2 µM | GI50 [23] 30.9 µM | GI50 [24] 20.2 µM | GI50 [25] 17.5 µM | GI50 [26] 89.2 µM | GI50 [27] 29 µM | GI50 [28] 13.2 µM | GI50 [29] 38.7 µM | GI50 [30] 31.9 µM | GI50 [31] 33.6 µM | GI50 [32] 53 µM | GI50 [33] 28.7 µM | GI50 [34] 24.1 µM | GI50 [35] 28.6 µM | GI50 [36] 29.7 µM | GI50 [37] 23 µM | GI50 [38] 32.9 µM | GI50 [39] 45.8 µM | GI50 [40] 16 µM | GI50 [41] 29.6 µM | GI50 [42] 31.3 µM | GI50 [43] 23.9 µM | GI50 [44] 55 µM | GI50 [45] 21.2 µM | GI50 [46] 11.7 µM | GI50 [47] 50.7 µM | GI50 [48] 16.2 µM | GI50 [49] 28.1 µM | GI50 [50] 42.1 µM | GI50 [51] 27.9 µM
57.1 µM: TGI [25]
86.6 µM: TGI [20] | TGI [33]
69.9 µM: TGI [5]
63 µM: TGI [3]
79.9 µM: TGI [34]
87.2 µM: TGI [43]
49.2 µM: TGI [7]
35.3 µM: TGI [1]
83.8 µM: TGI [2]
32.9 µM: TGI [48]
87.4 µM: TGI [10]
40.9 µM: TGI [28]
55.9 µM: TGI [13]
80.4 µM: TGI [15]
62.7 µM: TGI [45]

O=C(CCC(=O)CC(O)(C(F)(F)F)C(F)(F)F)CC(O)(C(F)(F)F)C(F)(F)F
96.3 µM: TGI [48]
97.8 µM: TGI [28]
69.5 µM: TGI [24]
67.4 µM: TGI [49]
91.2 µM: TGI [52]
> 100 µM: TGI [2] | TGI [3] | TGI [4] | TGI [6] | TGI [7] | TGI [9] | TGI [10] | TGI [12] | TGI [13] | TGI [14] | TGI [15] | TGI [53] | TGI [17] | TGI [18] | TGI [19] | TGI [21] | TGI [22] | TGI [23] | TGI [26] | TGI [27] | TGI [29] | TGI [30] | TGI [32] | TGI [33] | TGI [34] | TGI [35] | TGI [36] | TGI [37] | TGI [38] | TGI [55] | TGI [39] | TGI [40] | TGI [41] | TGI [42] | TGI [43] | TGI [44] | TGI [56] | TGI [45] | TGI [47] | TGI [50] | TGI [51]
59.3 µM: TGI [11]
49.4 µM: TGI [54]
72.4 µM: TGI [25]
95.8 µM: TGI [1]

COc1ccc2[nH]c3c(c2c1)CCN[C@]31CS[C@@H]2c3c(OC(C)=O)c(C)c4c(c3[C@H](COC1=O)N1[C@@H]2[C@H]2c3c(cc(C)c(OC)c3O)C[C@@H]([C@@H]1O)N2C)OCO4
> 100 µM: TGI [4] | TGI [7] | TGI [21] | TGI [35] | TGI [37]
1.68 µM: TGI [57]
0.0132 µM: TGI [54]
1.12 µM: TGI [38]

O=c1c2ccccc2c(=O)c2c1c1[nH]c3ccccc3c1c1c(=O)c3ccccc3c(=O)c21
inactive: outcome [4] | outcome [21] | outcome [28]
